Results on 16 molecules are retold here after ChEMBL document CHEMBL1141949, “In silico fragment-based discovery of indolin-2-one analogues as potent DNA gyrase inhibitors” (Bioorg Med Chem Lett, 2005).

SMILES strings stand for the structures.

This assay concerns the target DNA gyrase (Escherichia coli) (UniProt P0AES6+P0AES4). The assay is described as follows: In vitro activity against Escherichia coli DNA gyrase supercoiling. It is filed as protein-complex assay.
Turning to `O=C(/N=N/c1c(O)[nH]c2ccc(Br)cc12)c1ccncc1`, the MNEC was greater than 100 µM.
Take `CCCCc1nc(/C=C2\C(=O)Nc3ccccc32)c[nH]1`: the MNEC was found to be 50 µM.
On to `O=C1Nc2ccccc2/C1=C/c1ccc([N+](=O)[O-])cc1`, for which the MNEC is greater than 100 µM.
For `Cc1ccc2c(c1)/C(=N/N=C/c1c(O)ccc3ccccc13)C(=O)N2` the value was greater than 100 µM; for `Oc1[nH]c2ccccc2c1/N=N/c1n[nH]c2c3ccccc3nc-2n1`, greater than 100 µM.
In the case of `CCc1nc(C)c(/C=C2\C(=O)Nc3ccccc32)[nH]1` it was 25 µM; in that of `O=C1Nc2ccccc2/C1=C/c1c[nH]nc1-c1cccs1`, greater than 100 µM.
In the case of `CCc1nc(/C=C2\C(=O)Nc3ccccc32)c[nH]1` it was less than 100 µM; in that of `O=C1Nc2ccccc2/C1=C/c1cccnc1`, greater than 100 µM; in that of `O=C1Nc2ccccc2/C1=C/c1c[nH]c(-c2ccccc2)n1`, greater than 100 µM.
In the case of `O=C1Nc2ccccc2/C1=C/c1c[nH]c2cc([N+](=O)[O-])ccc12`, the MNEC is greater than 100 µM.
In the case of `O=C1Nc2ccccc2/C1=C/c1cnc[nH]1` it was 100 µM; in that of `O=C1Nc2ccccc2/C1=N/c1ccc(C(F)(F)F)cc1`, greater than 100 µM.
Take `O=C1N=C(N2CCOCC2)S/C1=C1\C(=O)Nc2ccccc21`: the MNEC was greater than 100 µM.
`Cc1[nH]c2ccccc2c1/C=C1\C(=O)Nc2ccccc21` yielded an MNEC greater than 100 µM.
Molecule `O=C1Nc2ccccc2/C1=C/c1ccccc1N1CCOCC1` gave an MNEC greater than 100 µM.
